The values below are quoted from earlier work in patent US20020013357A1, “Valdecoxib compositions” (priority 1999, published 2002).

`Cc1onc(-c2ccccc2)c1-c1ccc(S(N)(=O)=O)cc1` [Valdecoxib, 4-(5-methyl-3-phenyl-4-isoxazolyl)benzenesulfonamide]: the solubility in water entry is given as “extremely low solubility in water”.
